Laboratory results reported in the NIST ThermoML archive (doi:10.1021/je060271a).

Conditions: 323.14 K, Liquid, Vibrating tube method

CCCCCCC(=O)OCC(COC(=O)CCCCCC)(COC(=O)CCCCCC)COC(=O)CCCCCC [pentaerythritol tetraheptanoate]
Conditions | mass density [kg/m3]
13822 kPa | 964.8
13850 kPa | 964.7
13884 kPa | 964.8
13912 kPa | 964.9
13940 kPa | 965
13969 kPa | 964.9
14002 kPa | 964.9
14031 kPa | 964.9
14065 kPa | 964.9
14094 kPa | 964.9
14124 kPa | 965
14159 kPa | 964.9
14217 kPa | 964.9
14254 kPa | 965
14374 kPa | 965
14411 kPa | 965.1
14441 kPa | 965.3
14478 kPa | 965.2
14509 kPa | 965.3
14540 kPa | 965.3
14571 kPa | 965.2
14777 kPa | 965.3
14810 kPa | 965.4
14849 kPa | 965.5
14883 kPa | 965.4
15305 kPa | 965.7
15364 kPa | 965.8
15393 kPa | 965.8
15404 kPa | 965.8
15412 kPa | 965.8
15421 kPa | 965.8
15430 kPa | 965.8
15440 kPa | 965.9
15449 kPa | 965.8
15460 kPa | 965.9
15468 kPa | 966
15477 kPa | 965.9
15488 kPa | 965.8
15497 kPa | 965.8
15506 kPa | 965.9
15514 kPa | 965.8
15525 kPa | 965.8
15534 kPa | 966
15543 kPa | 965.9
15554 kPa | 965.9
15563 kPa | 965.9
15573 kPa | 965.9
15582 kPa | 966
15591 kPa | 965.9
15600 kPa | 966
15611 kPa | 966
15620 kPa | 965.9
15658 kPa | 966.1
15667 kPa | 966
15678 kPa | 966
15687 kPa | 966
15698 kPa | 966.1
15716 kPa | 966.2
15756 kPa | 966.1
15853 kPa | 966.1
15873 kPa | 966.2
15882 kPa | 966.1
15893 kPa | 966.1
15912 kPa | 966.1
15923 kPa | 966
15933 kPa | 966.2
15942 kPa | 966.2
16746 kPa | 966.7
16758 kPa | 966.5
16768 kPa | 966.7
16779 kPa | 966.7
16792 kPa | 966.6
16801 kPa | 966.7
16813 kPa | 966.6
16924 kPa | 966.8
16935 kPa | 966.8
16947 kPa | 966.8
16960 kPa | 966.9
16970 kPa | 966.9
16981 kPa | 966.8
16993 kPa | 966.8
17004 kPa | 966.9
17223 kPa | 966.9
17236 kPa | 967
17329 kPa | 967.1
17342 kPa | 967.1
17353 kPa | 967.1
17364 kPa | 967.1
17378 kPa | 967.1
17401 kPa | 967
17522 kPa | 967
17659 kPa | 967.3
17673 kPa | 967.2
17685 kPa | 967.2
17697 kPa | 967.3
17708 kPa | 967.1
17722 kPa | 967.2
17734 kPa | 967.3
17784 kPa | 967.3
17798 kPa | 967.3
17885 kPa | 967.4
17912 kPa | 967.5
17924 kPa | 967.3
17938 kPa | 967.4
17950 kPa | 967.5
18001 kPa | 967.4
18171 kPa | 967.5
18199 kPa | 967.5
18211 kPa | 967.6
18226 kPa | 967.6
18239 kPa | 967.6
18252 kPa | 967.6
